The subject of one test is S. aureus (Sa). The test can be described thus: Broth microdilution MIC, S. aureus. The test is classed as cell-based. The conditions noted are these: Staphylococcus aureus, read-out: Sa + bicarb 25 (MIC). Summed up:
(§1)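 Following CLSI guidance with slight modification, compounds are serially diluted two-fold (eight steps, triplicate) in CAMHB-based media, some containing 25 mM bicarbonate or 0-50% heat-inactivated human serum. Each well receives 5×10^4 CFU of bacteria pre-grown at 35±2° C to 0.5 McFarland turbidity.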

A further test relates to E. coli (Ec). The test can be described thus: Broth microdilution MIC, E. coli. The test is classed as cell-based. The conditions noted are these: Escherichia coli, read-out: E. coli + bicarb 25 (MIC). The procedure, abridged:
as §1
On the technique in general: Dilution methods test growth across graded concentrations, often in twofold steps.

A further test concerns P. aeruginosa (Pa). The test can be described thus: Broth microdilution MIC, P. aeruginosa. Format: cell-based. As to conditions: Pseudomonas aeruginosa, read-out: Pa + bicarb 25 (MIC). Summed up:
as §1

The next test concerns A. baumannii (Ab). The test can be described thus: Broth microdilution MIC, A. baumannii. Format: cell-based. The conditions noted are these: Acinetobacter baumannii, read-out: Ab + bicarb 25 (MIC). The procedure, abridged:
as §1

The next test deals with E. faecalis (Ef). The test can be described thus: Broth microdilution MIC, E. faecalis. The test is classed as cell-based. As to conditions: Enterococcus faecalis, read-out: Ef + bicarb 25 (MIC). Summed up:
as §1

The next test deals with E. coli S30 extract. Nature of the test: E. coli S30 extract: inhibition of bacterial protein synthesis (luciferase). The conditions noted are these: 37° C. 1 hour. Format: biochemical. The procedure, abridged: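 Coupled transcription-translation in E. coli S30 extract, programmed with pBESTluc plasmid, was run with 8-point 2-fold compound dilutions for 1 h at 37 °C. After a cold stop, luciferase luminescence was read and percent inhibition calculated against no-inhibitor controls.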

The target of test [1] is Rabbit Reticulocyte Lysate. Nature of the test: Rabbit Reticulocyte Lysate: inhibition of eukaryotic protein synthesis (luciferase). Format: biochemical. As to conditions: 30° C. 90 minutes, read-out: Retic. IC50. Summed up:
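Nuclease-treated rabbit reticulocyte lysate translating luciferase control RNA with complete amino acids; compounds in 8-point 2-fold dilutions, 90 min at 30° C. Luminescence read after luciferase reagent; % inhibition versus water (no-inhibitor) control, no-RNA wells as background.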

Each structure is given as a SMILES string. Counter-ions that a name gives are not always drawn. Like-named read-outs stand apart in the source and are kept apart here.

Usually MIC stands for the lowest concentration that inhibits growth of the organism. A word on the IC50: it is the concentration that inhibits the measured activity by half. `CCN(C[C@H]1CC[C@H](n2ccc(NC(=O)N3CCN(C(=O)C(C)(C)N)CC3)nc2=O)CC1)C1CC2(CC(N)C2)C1` (stereo partly drawn) [Compound 50, trans-4-(2-Amino-2-methylpropanoyl)-N-(1-(4-(((6-aminospiro[3.3]heptan-2-yl)(ethyl)amino)methyl)cyclohexyl)-2-oxo-1,2-dihydropyrimidin-4-yl)piperazine-1-carboxamide hydrochloride salt]: the MIC was < 8 µg/mL in the test with S. aureus (Sa); < 8 µg/mL in the test on E. coli (Ec); > 32 µg/mL with P. aeruginosa (Pa); 8 to 32 µg/mL in the test on A. baumannii (Ab); < 8 µg/mL with E. faecalis (Ef). The IC50 with E. coli S30 extract was < 0.5 µM; in test [1], ≥ 1 µM.
On to `CC(C)(N)C(=O)N1CCN(C(=O)Nc2ccn([C@H]3CC[C@H](CN4CC[C@H](CN)C4)CC3)c(=O)n2)CC1` [Compound 51, (R)-Trans-4-(2-amino-2-methylpropanoyl)-N-(1-(4-((3-(aminomethyl)pyrrolidin-1-yl)methyl)cyclohexyl)-2-oxo-1,2-dihydropyrimidin-4-yl)piperazine-1-carboxamide Hydrochloride], for which the minimal inhibitory concentration (MIC) in the test on S. aureus (Sa) is < 8 µg/mL; in the test with E. coli (Ec), < 8 µg/mL; with P. aeruginosa (Pa), > 32 µg/mL; with A. baumannii (Ab), > 32 µg/mL; in the test with E. faecalis (Ef) it was 8 to 32 µg/mL. For the same compound, the figures for the IC50 (with E. coli S30 extract; in test [1]) were < 0.5 µM and ≥ 1 µM, respectively.
As for `CC(C)(N)C(=O)N1CCN(C(=O)Nc2ccn([C@H]3CC[C@H](CN4CC(N)C4)CC3)c(=O)n2)CC1` [Compound 52, trans-4-(2-Amino-2-methylpropanoyl)-N-(1-(4-((3-aminoazetidin-1-yl)methyl)cyclohexyl)-2-oxo-1,2-dihydropyrimidin-4-yl)piperazine-1-carboxamide hydrochloride salt], the MIC is 8 to 32 µg/mL in the test on S. aureus (Sa); < 8 µg/mL in the test with E. coli (Ec); > 32 µg/mL in the test on P. aeruginosa (Pa); > 32 µg/mL with A. baumannii (Ab); > 32 µg/mL in the test on E. faecalis (Ef). Further, the IC50 is 0.5 to 1 µM in the test with E. coli S30 extract and ≥ 1 µM in test [1].
Consider `CC(C)(N)C(=O)N1CCN(C(=O)Nc2ccn(C3CCC(CNC4CC5(CC(N)C5)C4)CC3)c(=O)n2)CC1` (centres unmarked) [Compound 53, 4-(2-Amino-2-methylpropanoyl)-N-(1-(4-(((6-aminospiro[3.3]heptan-2-yl)amino)methyl)cyclohexyl)-2-oxo-1,2-dihydropyrimidin-4-yl)piperazine-1-carboxamide hydrochloride salt], for which the MIC in the test with S. aureus (Sa) is < 8 µg/mL; with E. coli (Ec) it was 8 to 32 µg/mL; in the test on P. aeruginosa (Pa) it was > 32 µg/mL; in the test on A. baumannii (Ab) it was > 32 µg/mL; in the test on E. faecalis (Ef), 8 to 32 µg/mL. For the same compound, the results for the IC50 (in the test on E. coli S30 extract; in test [1]) were < 0.5 µM and ≥ 1 µM, respectively.
Consider `CCN(C[C@H]1CC[C@H](n2ccc(N)nc2=O)CC1)[C@H]1CC[C@H](N)CC1` [Compound 54, 4-amino-1-((trans)-4-((((trans)-4-aminocyclohexyl)(ethyl)amino)methyl)cyclohexyl)pyrimidin-2(1H)-one], for which the MIC in the test with S. aureus (Sa) (S. aureus, CAMHB supplemented with sodium bicarbonate 25 mM) was > 32 µg/mL; in the test with E. coli (Ec) (E. coli, CAMHB supplemented with sodium bicarbonate 25 mM), > 32 µg/mL; in the test with P. aeruginosa (Pa) (P. aeruginosa, CAMHB supplemented with sodium bicarbonate 25 mM) it was > 32 µg/mL; in the test with A. baumannii (Ab) (A. baumannii, CAMHB supplemented with sodium bicarbonate 25 mM) it was > 32 µg/mL; with E. faecalis (Ef) (E. faecalis, CAMHB supplemented with sodium bicarbonate 25 mM), > 32 µg/mL. The IC50 (with E. coli S30 extract; in test [1]) was ≥ 1 µM throughout.

These data come from patent publication US20250084041A1, “ANTIMICROBIAL COMPOUNDS AND METHODS” (Curza Global, LLC, priority 2021, published 2025).
